Test results reported in the supplement of paper PMC10331698.
± gives the standard deviation of the averaged measurements.

How the values were obtained:
Experiment in all cases: level (log10 ratio to DMSO vehicle control); higher = higher biomarker level / cell amount than vehicle control
Settings in all cases: in DMSO
[1] = compound: O=S(=O)(O)C(F)(F)C(F)(F)C(F)(F)C(F)(F)C(F)(F)C(F)(F)C(F)(F)C(F)(F)F [Perfluorooctanesulfonic acid]
Experimental: (§1)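 BioMAP Diversity Plus panel of 12 human primary cell co-culture systems (3C, 4H, LPS, SAg, BT, BF4T, BE3C, CASM3C, HDF3CGF, KF3CT, MyoF, Mphg). Compounds were added 1 h before stimulation and left for 24 h (MyoF 48 h; BT 72 h for soluble read-outs or 6 d for IgG). Biomarkers were read by ELISA, cytotoxicity by SRB, PBMC viability and proliferation by Alamar Blue. Each well value was divided by the mean of 8 DMSO control wells on the same plate and log10 transformed; duplicate blinded samples were tested at 4 concentrations.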

Perfluorooctanamide = compound: NC(=O)C(F)(F)C(F)(F)C(F)(F)C(F)(F)C(F)(F)C(F)(F)C(F)(F)F [Perfluorooctanamide]
Experimental: as §1

[2] = compound: O=C(O)C(F)(F)OC(F)(F)C(F)(F)OC(F)(F)C(F)(F)C(F)(F)C(F)(F)F [Perfluoro-3,6-dioxadecanoic acid]
Experimental: as §1

Hexafluoroglutaric acid = compound: O=C(O)C(F)(F)C(F)(F)C(F)(F)C(=O)O [Hexafluoroglutaric acid]
Experimental: as §1

[3] = compound: C=C(C)C(=O)OCC(F)(F)C(F)(F)C(F)(F)C(F)(F)C(F)(F)C(F)(F)C(F)(F)F
Experimental: as §1

[4] = compound: CC(C)(C)C(=O)CC(=O)C(F)(F)C(F)(F)C(F)(F)F [(Heptafluorobutanoyl)pivaloylmethane]
Experimental: as §1

[5] = compound: O=S(=O)(O)C(F)(F)C(F)(F)C(F)(F)C(F)(F)C(F)(F)C(F)(F)C(F)(F)C(F)(F)F [Potassium perfluorooctanesulfonate]
Experimental: as §1

Test System | level (log10) ([1]; 6700 nM) | level (log10) ([1]; 20000 nM) | level (log10) ([1]; 60000 nM) | level (log10) (Perfluorooctanamide; 6700 nM) | level (log10) (Perfluorooctanamide; 20000 nM) | level (log10) (Perfluorooctanamide; 60000 nM) | level (log10) ([2]; 6700 nM) | level (log10) ([2]; 20000 nM) | level (log10) ([2]; 60000 nM) | level (log10) (Hexafluoroglutaric acid; 6700 nM) | level (log10) (Hexafluoroglutaric acid; 20000 nM) | level (log10) (Hexafluoroglutaric acid; 60000 nM) | level (log10) ([3]; 6700 nM) | level (log10) ([3]; 20000 nM) | level (log10) ([4]; 6700 nM) | level (log10) ([4]; 20000 nM) | level (log10) ([4]; 60000 nM) | level (log10) ([5]; 6700 nM) | level (log10) ([5]; 20000 nM) | level (log10) ([5]; 60000 nM)
LPS:IL-1alpha | 0.0245 ± 0.043 | 0.023 ± 0.04 | 0.0215 ± 0.0021 | -0.032 ± 0.033 | -0.003 ± 0.047 | -0.0395 ± 0.0092 | -0.008 ± 0.0085 | -0.0225 ± 0.03 | -0.04 ± 0.013 | -0.023 ± 0.02 | -0.0325 ± 0.0064 | 0.002 ± 0.037 | 0.016 ± 0.048 | 0.044 ± 0.016 | 0.0285 ± 0.00071 | 0.0365 ± 0.0021 | 0.0745 ± 0.026 | -0.022 ± 0.0014 | -0.0195 ± 0.011 | -0.0145 ± 0.012
4H:CCL2/MCP-1 | -0.001 ± 0.0085 | -0.0275 ± 0.021 | -0.0255 ± 0.005 | -0.016 ± 0.0028 | -0.005 ± 0.0014 | -0.008 | -0.0225 ± 0.0092 | -0.0425 ± 0.011 | -0.093 ± 0.14 | -0.0095 ± 0.032 | -0.0135 ± 0.011 | 0.0245 ± 0.047 | -0.0415 ± 0.0092 | -0.005 ± 0.061 | -0.0085 ± 0.012 | -0.006 ± 0.018 | -0.0195 ± 0.059 | 0.0095 ± 0.023 | -0.0305 ± 0.0064 | -0.0215 ± 0.025
LPS:CD69 | -0.018 ± 0.0057 | -0.0385 ± 0.0021 | -0.025 ± 0.014 | -0.0115 ± 0.086 | 0.0295 ± 0.036 | 0.0385 ± 0.029 | -0.009 ± 0.0099 | -0.0425 ± 0.026 | -0.191 ± 0.088 | -0.003 ± 0.011 | -0.014 ± 0.0099 | 0.0075 ± 0.0021 | -0.0065 ± 0.069 | 0.0095 ± 0.067 | 0.0025 ± 0.026 | 0.007 | 0.063 ± 0.018 | -0.0315 ± 0.012 | -0.046 ± 0.0057 | -0.0205 ± 0.039
BT:sIL-17F | -0.064 ± 0.14 | -0.0825 ± 0.059 | -0.009 ± 0.018 | 0.0205 ± 0.0064 | -0.0165 ± 0.035 | -0.0955 ± 0.1 | -0.016 ± 0.055 | -0.0335 ± 0.12 | -0.021 ± 0.1 | 0.046 ± 0.071 | 0.0335 ± 0.05 | -0.004 ± 0.0085 | 0.0315 ± 0.0035 | -0.0245 ± 0.063 | -0.069 ± 0.082 | -0.0005 ± 0.036 | -0.119 ± 0.1 | -0.085 ± 0.037 | -0.06 ± 0.11 | -0.072 ± 0.037
BT:PBMC Cytotoxicity | 0.0295 ± 0.0064 | 0.038 ± 0.016 | 0.078 ± 0.047 | 0.012 ± 0.024 | 0.0275 ± 0.025 | 0.0635 ± 0.0035 | 0.017 ± 0.028 | 0.0265 ± 0.0021 | 0.0915 ± 0.005 | 0.019 ± 0.027 | -0.017 ± 0.0071 | 0.005 ± 0.014 | 0.0145 ± 0.025 | 0.0105 ± 0.029 | 0.0255 ± 0.0035 | -0.019 ± 0.011 | 0.0105 ± 0.042 | -0.0055 ± 0.022 | 0.0125 ± 0.033 | 0.097 ± 0.058
SAg:CCL2/MCP-1 | 0.003 | 0.004 ± 0.0042 | 0.0015 ± 0.0064 | -0.008 ± 0.021 | -0.02 ± 0.018 | -0.0085 ± 0.042 | 0.017 ± 0.088 | -0.0255 ± 0.00071 | -0.0895 ± 0.026 | -0.028 ± 0.0071 | -0.0205 ± 0.0035 | -0.0205 ± 0.016 | -0.0015 ± 0.0035 | 0.0175 ± 0.0092 | -0.005 | -0.0155 ± 0.0035 | -0.0085 ± 0.05 | -0.015 ± 0.0071 | -0.0025 ± 0.0021 | 0.004 ± 0.013
BE3C:CXCL10/IP-10 | -0.0365 ± 0.013 | -0.478 ± 0.054 | -0.7725 ± 0.0035 | -0.0025 ± 0.028 | -0.005 ± 0.0071 | -0.0135 ± 0.015 | -0.0415 ± 0.025 | -0.0795 ± 0.033 | -0.626 ± 0.02 | -0.001 ± 0.0042 | -0.0085 ± 0.00071 | 0.0015 ± 0.023 | 0.0135 ± 0.018 | -0.004 ± 0.014 | 0.006 ± 0.024 | -0.0025 ± 0.022 | -0.0055 ± 0.019 | -0.0455 ± 0.0035 | -0.505 ± 0.0057 | -0.589 ± 0.014
LPS:M-CSF | -0.022 ± 0.011 | 0 ± 0.031 | 0.008 ± 0.017 | -0.0005 ± 0.022 | -0.0205 ± 0.013 | -0.067 ± 0.0085 | 0.006 ± 0.018 | -0.0115 ± 0.03 | -0.013 ± 0.0057 | 0.024 ± 0.047 | -0.019 ± 0.028 | -0.034 ± 0.051 | 0.005 ± 0.017 | 0.03 ± 0.017 | -0.004 ± 0.018 | 0 ± 0.0085 | -0.0125 ± 0.052 | -0.0215 ± 0.016 | 0 ± 0.024 | 0.008 ± 0.014
LPS:sPGE2 | 0.01 ± 0.035 | -0.0315 ± 0.0092 | -0.075 ± 0.013 | 0.019 ± 0.035 | 0.0225 ± 0.025 | 0.0545 ± 0.036 | -0.105 ± 0.011 | -0.161 ± 0.0078 | -0.248 ± 0.03 | -0.0265 ± 0.028 | -0.039 ± 0.031 | -0.0185 ± 0.069 | -0.0035 ± 0.05 | -0.031 ± 0.034 | 0.058 ± 0.013 | 0.04 ± 0.018 | 0.181 ± 0.023 | -0.033 ± 0.042 | -0.0005 ± 0.03 | -0.053 ± 0.096
4H:SRB | -0.0005 ± 0.012 | -0.0065 ± 0.011 | -0.0085 ± 0.023 | -0.0005 ± 0.005 | -0.008 ± 0.0057 | 0.0085 ± 0.028 | -0.005 ± 0.018 | -0.002 ± 0.0057 | -0.065 ± 0.041 | -0.0005 ± 0.0092 | 0.003 ± 0.016 | 0.011 ± 0.034 | 0.0005 ± 0.029 | -0.0035 ± 0.018 | -0.007 ± 0.0014 | -0.005 ± 0.0071 | -0.0095 ± 0.016 | -0.0105 ± 0.011 | 0.004 ± 0.024 | -0.0095 ± 0.023
BF4T:CD106/VCAM-1 | -0.0065 ± 0.0021 | -0.0155 ± 0.012 | -0.016 ± 0.03 | -0.009 ± 0.02 | 0 ± 0.0099 | -0.0005 ± 0.03 | -0.0965 ± 0.018 | -0.083 ± 0.0099 | -0.0925 ± 0.03 | -0.0055 ± 0.023 | -0.0095 ± 0.0078 | -0.002 ± 0.017 | 0.015 ± 0.014 | 0.0105 ± 0.05 | 0.0075 ± 0.015 | -0.002 ± 0.0042 | -0.005 | 0.0115 ± 0.015 | -0.014 ± 0.0099 | 0.01 ± 0.052
BF4T:MMP-9 | 0.02 ± 0.0028 | 0.033 ± 0.0099 | 0.019 ± 0.095 | -0.0065 ± 0.011 | 0.0015 ± 0.039 | -0.031 ± 0.048 | -0.035 ± 0.0057 | -0.0215 ± 0.0064 | -0.051 ± 0.02 | -0.003 ± 0.0014 | -0.0135 ± 0.012 | 0.007 ± 0.0028 | 0.015 ± 0.0071 | 0.0165 ± 0.005 | -0.009 ± 0.042 | 0.0205 ± 0.029 | 0.033 ± 0.0014 | 0.024 ± 0.017 | 0.048 ± 0.02 | 0.0665 ± 0.046
BF4T:SRB | -0.0095 ± 0.0092 | -0.0115 ± 0.0021 | -0.0015 ± 0.026 | -0.005 ± 0.0042 | 0.008 ± 0.011 | -0.006 ± 0.0042 | -0.024 ± 0.0014 | -0.023 ± 0.0057 | -0.053 ± 0.0085 | -0.005 ± 0.0028 | -0.0065 ± 0.0021 | -0.0015 ± 0.0078 | 0.0005 ± 0.0078 | -0.005 ± 0.011 | -0.006 ± 0.0085 | 0.0075 ± 0.0021 | 0.0055 ± 0.023 | -0.01 ± 0.011 | -0.01 ± 0.0099 | -0.002 ± 0.0099
LPS:CD40 | -0.018 | -0.0345 ± 0.022 | -0.076 ± 0.073 | -0.034 ± 0.021 | -0.015 ± 0.0057 | -0.0265 ± 0.028 | -0.0125 ± 0.0078 | -0.0265 ± 0.023 | -0.14 ± 0.055 | 0 ± 0.0028 | -0.0035 ± 0.035 | 0.0085 ± 0.046 | -0.03 ± 0.024 | -0.0145 ± 0.021 | 0.0275 ± 0.066 | 0.028 ± 0.068 | 0.0515 ± 0.0021 | -0.062 ± 0.052 | -0.055 ± 0.014 | -0.062 ± 0.016
